The source of these data is patent EP4796530A1 (Biocells (Beijing) Biotech Co., Ltd., priority 2023, dated 2025).

In test [1] the target is NLRP3 (Homo sapiens, UniProt Q96P20). The test can be described thus: Inhibition curves (IC50) of canonical NLRP3 activation (LPS+Nig) in THP-1 cells, IL-1β release. It counts as cell-based. The arrangement: host or cells: THP-1 human acute monocytic leukemia cell line, PMA-differentiated. To be noted: THP-1 cell LPS+Nig activation model. On the procedure: Nig was purchased from Shanghai Yuanye Bio-Technology Co., Ltd., Cat. No.: S45490.
Sequence of NLRP3 (Homo sapiens, UniProt Q96P20) (Q96P20 whole entry): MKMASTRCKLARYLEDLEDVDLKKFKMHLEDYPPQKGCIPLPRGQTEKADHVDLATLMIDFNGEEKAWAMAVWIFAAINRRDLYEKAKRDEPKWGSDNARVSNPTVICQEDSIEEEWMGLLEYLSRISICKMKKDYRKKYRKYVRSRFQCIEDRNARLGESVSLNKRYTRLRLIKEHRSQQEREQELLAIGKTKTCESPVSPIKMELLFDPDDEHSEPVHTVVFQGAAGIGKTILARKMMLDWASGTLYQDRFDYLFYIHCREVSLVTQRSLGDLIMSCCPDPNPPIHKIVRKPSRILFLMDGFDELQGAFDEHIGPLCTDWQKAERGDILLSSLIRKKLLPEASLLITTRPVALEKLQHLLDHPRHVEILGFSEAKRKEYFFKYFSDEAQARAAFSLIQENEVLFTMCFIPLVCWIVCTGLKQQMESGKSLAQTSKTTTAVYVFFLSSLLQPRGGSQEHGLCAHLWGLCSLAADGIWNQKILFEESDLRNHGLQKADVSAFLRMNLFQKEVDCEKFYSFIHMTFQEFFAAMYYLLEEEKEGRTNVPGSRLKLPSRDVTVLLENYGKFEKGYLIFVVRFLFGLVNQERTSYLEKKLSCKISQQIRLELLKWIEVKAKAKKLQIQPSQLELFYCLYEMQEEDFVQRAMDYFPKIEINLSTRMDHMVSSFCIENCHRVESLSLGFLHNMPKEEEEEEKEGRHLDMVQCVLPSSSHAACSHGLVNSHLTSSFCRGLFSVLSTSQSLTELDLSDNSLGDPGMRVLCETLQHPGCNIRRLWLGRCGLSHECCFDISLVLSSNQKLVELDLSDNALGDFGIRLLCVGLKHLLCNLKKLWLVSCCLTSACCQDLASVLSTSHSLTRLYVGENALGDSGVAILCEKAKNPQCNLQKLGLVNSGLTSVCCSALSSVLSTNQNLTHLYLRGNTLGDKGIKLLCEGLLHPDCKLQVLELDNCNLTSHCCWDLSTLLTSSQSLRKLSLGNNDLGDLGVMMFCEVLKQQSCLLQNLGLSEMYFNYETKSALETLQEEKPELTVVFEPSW
The cells were incubated overnight.
Therefore, the relative change in the amount of IL-1β release may directly reflect NLRP3 inhibitory effect. The inhibitory effect of the compounds varies with different concentrations, and based on this, an inhibition curve can be constructed, and the inhibitory effects of the compounds were assessed by IC50.

In test [2] the target is NLRP3 (Mus musculus, UniProt Q8R4B8). The test can be described thus: LPS-induced sepsis model in mice: serum IL-1β and survival rate. Type of test: in vivo, C57BL/6 mice. Set-up: tissue National Institutes for Food and Drug Control; host or cells: C57BL/6J mice in vivo (serum IL-1β in A7, ascites IL-1β in A8). To be noted: 30 mg/kg intraperitoneally 1 h before 20 mg/kg LPS. On the procedure: Intraperitoneal injection of 20 mg/kg LPS can induce a septic state in C57BL/6 mice and cause a significant increase in serum IL-1β after injection. Example compounds were intraperitoneally injected preemptively to study the effects on IL-1β increase and mouse survival rate. LPS was purchased from Sigma, Cat. No. L2630; and C57BL/6J male mice aged 6-8 weeks were purchased from National Institutes for Food and Drug Control.
Sequence of NLRP3 (Mus musculus, UniProt Q8R4B8) (Q8R4B8 whole entry): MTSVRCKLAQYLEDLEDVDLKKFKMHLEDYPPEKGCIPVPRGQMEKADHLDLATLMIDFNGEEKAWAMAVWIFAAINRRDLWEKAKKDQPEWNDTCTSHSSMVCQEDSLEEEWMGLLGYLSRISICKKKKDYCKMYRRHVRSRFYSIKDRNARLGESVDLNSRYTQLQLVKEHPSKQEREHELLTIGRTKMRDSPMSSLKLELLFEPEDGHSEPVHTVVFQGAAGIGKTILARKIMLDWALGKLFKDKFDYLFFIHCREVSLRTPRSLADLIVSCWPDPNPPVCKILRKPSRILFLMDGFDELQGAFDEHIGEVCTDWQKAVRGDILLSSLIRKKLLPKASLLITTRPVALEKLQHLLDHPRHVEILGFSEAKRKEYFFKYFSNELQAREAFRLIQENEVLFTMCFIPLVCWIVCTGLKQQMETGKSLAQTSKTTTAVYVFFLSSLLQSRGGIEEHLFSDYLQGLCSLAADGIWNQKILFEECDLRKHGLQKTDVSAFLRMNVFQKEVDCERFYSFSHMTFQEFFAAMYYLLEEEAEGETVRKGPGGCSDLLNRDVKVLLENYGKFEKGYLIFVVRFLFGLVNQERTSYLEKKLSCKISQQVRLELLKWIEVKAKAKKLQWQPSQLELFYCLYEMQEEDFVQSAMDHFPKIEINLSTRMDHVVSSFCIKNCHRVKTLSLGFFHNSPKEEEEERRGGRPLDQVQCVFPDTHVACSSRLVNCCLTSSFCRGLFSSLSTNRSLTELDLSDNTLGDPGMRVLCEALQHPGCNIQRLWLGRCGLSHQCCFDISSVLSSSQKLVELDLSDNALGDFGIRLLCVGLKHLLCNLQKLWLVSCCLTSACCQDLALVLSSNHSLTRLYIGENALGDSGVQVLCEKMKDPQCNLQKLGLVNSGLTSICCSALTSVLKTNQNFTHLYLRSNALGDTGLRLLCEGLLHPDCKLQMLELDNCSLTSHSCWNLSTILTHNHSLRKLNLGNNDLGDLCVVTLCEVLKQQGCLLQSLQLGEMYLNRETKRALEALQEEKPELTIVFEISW
Experimental groups: a sham group, a model group, and an example compound dosing group.
30 mg/kg of example compounds were injected intraperitoneally. 1 h later, 20 mg/kg LPS was injected intraperitoneally into the model group and the example compound dosing group for modeling, and the control solvent was injected into the sham group. Serum samples were collected from a batch of mice at 2.5 h and 4 h after modeling, and the levels of IL-1β were analyzed. For another batch of mice, the survival rate of the mice was calculated after modeling.

The structures appear in SMILES notation.

Molecule `CN(C)Cc1cccc(S(=O)(=O)NC(=O)Nc2c3c(cc4c2CCC4)CCC3)c1N` [Example 19, 2-amino-3-((dimethylamino)methyl)-N-((1,2,3,5,6,7-hexahydro-s-indacen-4-yl)carbamoyl)benzenesulfonamide] yielded a half-maximal inhibitory concentration (IC50) on NLRP3 [1] of 278 nM. Moreover, at NLRP3 [2], the “mouse survival rate compared with the model group” value is “significantly improved” and the “survival rate compared with MCC950” value is on record as “significantly further improved”. Besides, the “IL-1β level in serum compared with the model group” value at NLRP3 [2] (2.5 h after modeling) is “significant differences”. Also, the “IL-1β level in serum compared with the model group” value on NLRP3 [2] (4 h after modeling) is “significant differences”.
